Measured values taken from US11219607B2, “Methods for suppressing cancer-related cachexia” (Ohio State Innovation Foundation, priority 2013, dated 2022).
“Also recorded” adds a separate entry of the source.

How the values were obtained:
Atrogin-1/MAFbx mRNA = test: qPCR of gastrocnemius muscle, C-26 model: Atrogin-1; type: in vivo, CD2F1 mice; details: C-26 tumor-bearing mice, 15 days after tumor cell injection, tumor-bearing/vehicle 29.4±3.5-fold, mean±S.D.
Experimental: (§1) Total RNA was isolated from homogenized gastrocnemius muscles (n=3/group) with TRIzol reagent (Life Technologies, Carlsbad, Calif.) and then purified using the RNAeasy Mini Kit (Qiagen, Valencia, Calif.). qRT-PCR was performed as described previously (42) by using the Bio-Rad CFX96 Real-Time PCR Detection System with iQ SYBR Green Supermix (Bio-Rad, Hercules, Calif.). RNA-seq library generation and data analysis were performed at The Ohio State University Comprehensive Cancer Center (OSUCCC) Nucleic Acid Shared Resource.
(§2) AR-42 was able to restore expression of Atrogin-1 (2.7±0.7-fold) and MuRF1 (1.1±0.2-fold) mRNA to basal levels […].

MuRF1 mRNA = test: qPCR of gastrocnemius muscle, C-26 model: MuRF1; type: in vivo, CD2F1 mice; details: C-26 tumor-bearing mice, 15 days after tumor cell injection, tumor-bearing/vehicle 25.8±3.9-fold, mean±S.D.
Experimental: as §1, §2

C-26 tumor-bearing mice [1] = details: literature reference (33); cited from earlier work
C-26 tumor-bearing mice [2] = test: Survival and body weight comparison of HDAC inhibitors, C-26 model; type: in vivo, CD2F1 mice; details: vorinostat 50 mg/kg p.o. once daily, romidepsin 0.6 mg/kg i.p. twice weekly, from day 6
Experimental: In one aspect, tumors were established by subcutaneous injection of C-26 cells (0.5×10^6 cells in 0.1 ml) into the right flank of male CD2F1 mice (approximately 6 weeks of age; Harlan Laboratories, Indianapolis, Ind.)(11). Tumor-bearing mice, as well as tumor-free mice serving as non-cachectic controls, were randomized into groups that were treated with either AR-42 (50 mg/kg, p.o. by gavage, every other day; Arno Therapeutics, Inc., Flemington, N.J.) or vehicle (0.5% methylcellulose (w/v) and 0.1% Tween-80 (v/v) in sterile water) starting 6 days after cell injection. To investigate the effect of delayed treatment, treatments with drug and/or vehicle were started 6, 10 and 12 days after cancer cell injection.
In another aspect, the effects of AR-42 were compared to other HDAC inhibitors. […]
The effects of AR-42 were compared to other HDAC inhibitors (i.e., vorinostat and romidepsin) in C-26 tumor-bearing mice. Starting on day 6 after tumor cell injection, mice were treated continuously with AR-42 (50 mg/kg every other day, orally), vorinostat [50 mg/kg once daily, orally (13)], romidepsin [0.6 mg/kg twice weekly, i.p. (14)], or vehicle, until weight loss, as determined by daily body weight measurements and subtraction of tumor mass, reached 20% of starting weight. […]

C/C=C1\NC(=O)[C@H]2CSSCC/C=C/[C@H](CC(=O)N[C@H](C(C)C)C(=O)N2)OC(=O)[C@H](C(C)C)NC1=O [romidepsin]
Atrogin-1 mRNA level relative to tumor-free/vehicle control (Atrogin-1/MAFbx mRNA): 19.6±3.1 fold
MuRF1 mRNA level relative to tumor-free/vehicle control (MuRF1 mRNA): 14.6±3.3 fold

CC(/C=C/C(=O)NO)=C\[C@@H](C)C(=O)c1ccc(N(C)C)cc1 [trichostatin-A]
reversal of muscle loss in C-26 tumor-bearing mice (C-26 tumor-bearing mice [1]): could not reverse muscle loss

O=C(CCCCCCC(=O)Nc1ccccc1)NO [vorinostat]
protective effect on body weight / attenuation of cachexia-induced weight loss (C-26 tumor-bearing mice [2]): limited or no appreciable protective effects; also recorded: ineffective
Atrogin-1 mRNA level relative to tumor-free/vehicle control (Atrogin-1/MAFbx mRNA): 9.6±1.8 fold
MuRF1 mRNA level relative to tumor-free/vehicle control (MuRF1 mRNA): 5.5±1.1 fold

CCCC(CCC)C(=O)O [valproic acid]
reversal of muscle loss in C-26 tumor-bearing mice (C-26 tumor-bearing mice [1]): could not reverse muscle loss
